According to publication PMC5607165, “Synthesis of UDP-apiose in Bacteria: The marine phototroph Geminicoccus roseus and the plant pathogen Xanthomonas pisi” (PLoS ONE, 2017):

T1: XpUAS (Xanthomonas pisi, UniProt A0A291B0F1)
T1 construct: gene XpiCFBP4643_06440
T1 sequence (A0A291B0F1 1-375): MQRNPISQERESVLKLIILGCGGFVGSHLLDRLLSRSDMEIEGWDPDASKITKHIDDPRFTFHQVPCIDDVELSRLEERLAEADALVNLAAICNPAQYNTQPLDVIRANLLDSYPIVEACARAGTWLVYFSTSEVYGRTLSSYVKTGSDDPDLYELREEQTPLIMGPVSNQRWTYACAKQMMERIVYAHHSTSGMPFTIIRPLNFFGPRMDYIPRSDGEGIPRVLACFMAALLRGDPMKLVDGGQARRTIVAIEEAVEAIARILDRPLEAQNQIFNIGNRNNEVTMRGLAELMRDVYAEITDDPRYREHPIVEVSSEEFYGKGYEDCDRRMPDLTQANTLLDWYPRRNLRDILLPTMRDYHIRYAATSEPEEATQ

B1: GrUAS (Geminicoccus roseus) (protein)
chain: MRVVILGCGGFVGSHLLDNLLRDESYLIEGWDPEDRKIRQHLDNPRFTLHRSIANAPEALVEVERAIRECDVVVNLAAICNPADYNTRPLSVIRANLFEVYPIVELCAKYKRWLVSFSTSETYGRTIASYLPAGTYDDPELYELREDETPLIMGPIRNQRWTYACAKQMTERLIYAHHDEEGLPFTIIRPLNFFGPRMDYIPTRDGDGVPRVLACFMAALLSGEPMQLVDGGQARRTIVSIYEAVDAIRRVLERPETSQNQIFNIGNPNNEVTIAELADAMRRTYARITGDARYNDHPIVVTTADAFYGAGYEDCDRRMPDISKAERLLGWVPRMSLAEVLYGTMQSYHDTYTAPKAA

The molecules below were run against T2, CeUAS (Candidatus Entotheonella factor, UniProt W4LSK8) (assay: HILIC-ESI-MS/MS and 1H NMR of products). Conditions: 1 mM NAD+, 1 mM UDP-GlcA, 50 mM Tris-HCl pH 7.9, 37 °C; products UDP-apiose and UDP-xylose.
T2 construct: gene ETSY1_09345
T2 sequence (W4LSK8 entry or part of it): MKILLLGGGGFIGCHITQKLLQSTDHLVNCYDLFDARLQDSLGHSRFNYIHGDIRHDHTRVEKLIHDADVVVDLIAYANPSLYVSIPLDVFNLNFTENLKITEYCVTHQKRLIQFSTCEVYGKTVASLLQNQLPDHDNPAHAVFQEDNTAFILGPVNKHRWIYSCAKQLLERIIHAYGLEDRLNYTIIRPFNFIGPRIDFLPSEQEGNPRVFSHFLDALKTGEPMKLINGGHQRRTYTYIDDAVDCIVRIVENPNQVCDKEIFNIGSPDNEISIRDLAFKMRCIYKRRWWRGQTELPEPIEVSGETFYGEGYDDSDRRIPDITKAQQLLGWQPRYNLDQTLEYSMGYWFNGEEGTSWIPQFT
Format: biochemical

Molecule | HILIC-ESI-MS/MS and 1H NMR of products
O=C(O)[C@H]1O[C@H](OP(=O)(O)OP(=O)(O)OC[C@H]2O[C@@H](n3ccc(=O)[nH]c3=O)[C@H](O)[C@@H]2O)[C@H](O)[C@@H](O)[C@@H]1O [UDP-GlcA] | Each purified UAS was shown by HILIC-ESI-MS/MS to convert UDP-GlcA to two UDP-pentose products

Each molecule was assayed on O=C(O)[C@H]1O[C@H](OP(=O)(O)OP(=O)(O)OC[C@H]2O[C@@H](n3ccc(=O)[nH]c3=O)[C@H](O)[C@@H]2O)[C@H](O)[C@@H](O)[C@@H]1O (assay: HPLC anion exchange, UDP-GlcA depletion). Conditions: 1 mM NAD+, 50 mM Tris-HCl pH 7.9, 37 °C, 7 min.
Format: biochemical, Geminicoccus roseus
Excerpt: HPLC anion exchange, UDP-GlcA depletion on GrUAS

Molecule | Km | Vmax
B1 | 251 ± 44.6 µM | 4.22 µM/min

Each molecule was assayed against GrUAS (Geminicoccus roseus, UniProt A0A291B0F6) (assay: HPLC, UDP-GlcA consumption with additive). Conditions: 1 mM UDP-GlcA, 1 mM NAD+, 50 mM Tris-HCl pH 7.9, 37 °C; additive concentration not given; residual activity versus water.
Format: biochemical
Excerpt: HPLC, UDP-GlcA consumption with additive on GrUAS

Molecule | Relative activity (%)^a
Cc1cn([C@H]2C[C@H](O)[C@@H](COP(=O)(O)O)O2)c(=O)[nH]c1=O [TMP] | 87.9 ± 4.9%
NC(=O)C1=CN([C@@H]2O[C@H](COP(=O)(O)OP(=O)(O)OC[C@H]3O[C@@H](n4cnc5c(N)ncnc54)[C@H](OP(=O)(O)O)[C@@H]3O)[C@@H](O)[C@H]2O)C=CC1 [NADPH] | 82.6 ± 0.9%
O=c1ccn([C@@H]2O[C@H](COP(=O)(O)OP(=O)(O)O)[C@@H](O)[C@H]2O)c(=O)[nH]1 [UDP] | 72.6 ± 5.5%
NC(=O)c1ccc[n+]([C@@H]2O[C@H](COP(=O)(O)OP(=O)(O)OC[C@H]3O[C@@H](n4cnc5c(N)ncnc54)[C@H](OP(=O)(O)O)[C@@H]3O)[C@@H](O)[C@H]2O)c1 [NADP] | 79.6 ± 3.3%
Nc1nc2c(ncn2[C@@H]2O[C@H](COP(=O)(O)OP(=O)(O)O)[C@@H](O)[C@H]2O)c(=O)[nH]1 [GDP] | 85.2 ± 7.9%
NC(=O)C1=CN([C@@H]2O[C@H](COP(=O)(O)OP(=O)(O)OC[C@H]3O[C@@H](n4cnc5c(N)ncnc54)[C@H](O)[C@@H]3O)[C@@H](O)[C@H]2O)C=CC1 [NADH] | 105.3 ± 1.9%
Nc1ccn([C@@H]2O[C@H](COP(=O)(O)O)[C@@H](O)[C@H]2O)c(=O)n1 [CMP] | 93.8 ± 4.5%
O=c1ccn([C@@H]2O[C@H](COP(=O)(O)OP(=O)(O)O[C@H]3OC[C@@H](O)[C@H](O)[C@H]3O)[C@@H](O)[C@H]2O)c(=O)[nH]1 [UDP-xylose] | 91.4 ± 5.6%
O=c1ccn([C@@H]2O[C@H](COP(=O)(O)OP(=O)(O)O[C@H]3OC[C@H](O)[C@H](O)[C@H]3O)[C@@H](O)[C@H]2O)c(=O)[nH]1 [UDP-arabinose] | 88.5 ± 5.6%
Nc1ccn([C@@H]2O[C@H](COP(=O)(O)OP(=O)(O)O)[C@@H](O)[C@H]2O)c(=O)n1 [CDP] | 85.3 ± 4.6%
Nc1nc2c(ncn2[C@@H]2O[C@H](COP(=O)(O)O)[C@@H](O)[C@H]2O)c(=O)[nH]1 [GMP] | 94.3 ± 3.7%
Cc1cn([C@H]2C[C@H](O)[C@@H](COP(=O)(O)OP(=O)(O)O)O2)c(=O)[nH]c1=O [TDP] | 85.0 ± 4.8%
O=C(O)[C@H]1O[C@H](OP(=O)(O)OP(=O)(O)OC[C@H]2O[C@@H](n3ccc(=O)[nH]c3=O)[C@H](O)[C@@H]2O)[C@H](O)[C@@H](O)[C@H]1O [UDP-galacturonic acid] | 33.4 ± 9.5%
O=c1ccn([C@@H]2O[C@H](COP(=O)(O)O)[C@@H](O)[C@H]2O)c(=O)[nH]1 [UMP] | 92.6 ± 5.0%

The molecules below were run against T1, XpUAS (assay: HILIC-ESI-MS/MS and 1H NMR of products). Conditions: 1 mM NAD+, 1 mM UDP-GlcA, 50 mM Tris-HCl pH 7.9, 37 °C; products UDP-apiose and UDP-xylose.
Format: biochemical

Molecule | HILIC-ESI-MS/MS and 1H NMR of products
O=C(O)[C@H]1O[C@H](OP(=O)(O)OP(=O)(O)OC[C@H]2O[C@@H](n3ccc(=O)[nH]c3=O)[C@H](O)[C@@H]2O)[C@H](O)[C@@H](O)[C@@H]1O [UDP-GlcA] | Each purified UAS was shown by HILIC-ESI-MS/MS to convert UDP-GlcA to two UDP-pentose products

What follows are molecules tested against Geminicoccus roseus UDP-apiose/UDP-xylose synthase (GrUAS), recombinant His6-tagged (Geminicoccus roseus) (assay: SEC; Superdex75 gel filtration of purified recombinant GrUAS; mass estimated from the elution times of standard protein markers; activity of the fractions determined by HPLC; method as previously described [31]). Conditions: not given.

Molecule | stoichiometry N
Geminicoccus roseus UDP-apiose/UDP-xylose synthase (GrUAS), recombinant His6-tagged (enzyme) | 2
